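Method: 48-hour compound exposure of cells in 96-well plates, five concentrations, linear interpolation of endpoints. At the GI50, growth is halved. TGI marks complete inhibition of growth.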
What was measured:
Assay in all cases: NCI-60 cell line screen, 48 h
[1] = tested on: UO-31 renal
[2] = tested on: PC-3 prostate
[3] = tested on: NCI/ADR-RES ovarian
[4] = tested on: SK-MEL-28 melanoma
[5] = tested on: DU-145 prostate
[6] = tested on: U251 CNS
[7] = tested on: NCI-H226 lung
[8] = tested on: M14 melanoma
[9] = tested on: SF-295 CNS
[10] = tested on: SK-MEL-2 melanoma

SMILES: COc1cc(-c2csc(NC(=O)Nc3cc(C(F)(F)F)cc(C(F)(F)F)c3)n2)cc(OC)c1OC
- GI50 [1]: 2.85 µM
- TGI [1]: 12.1 µM
- GI50 [2]: 1 µM
- TGI [2]: 7.55 µM
- GI50 [3]: 2.65 µM
- TGI [3]: 12.1 µM
- GI50 [4]: 3.02 µM
- TGI [4]: 12.6 µM
- GI50 [5]: 3.6 µM
- TGI [5]: 18.3 µM
- GI50 [6]: 2.73 µM
- TGI [6]: 10.7 µM
- GI50 [7]: 2.87 µM
- TGI [7]: 12 µM
- GI50 [8]: 2.35 µM
- TGI [8]: 6.24 µM
- GI50 [9]: 1.83 µM
- TGI [9]: 5.46 µM
- GI50 [10]: 1.66 µM
- TGI [10]: 5.85 µM

SMILES: O=C(O)c1ccc2c3c(ncnc13)-c1ccccc1C2=O
- GI50 [1]: 15.8 µM
- TGI [1]: > 100 µM
- GI50 [2]: 43.3 µM
- TGI [2]: > 100 µM
- GI50 [3]: 42.8 µM
- TGI [3]: > 100 µM
- GI50 [4]: 1.64 µM
- TGI [4]: 4.04 µM
- GI50 [5]: 1.46 µM
- TGI [5]: 2.83 µM
- GI50 [6]: 4.08 µM
- TGI [6]: > 100 µM
- GI50 [7]: 4.08 µM
- TGI [7]: > 100 µM
- GI50 [8]: 1.35 µM
- TGI [8]: 3.05 µM
- GI50 [9]: 2.28 µM
- TGI [9]: > 30.6 µM
- GI50 [10]: 20.7 µM
- TGI [10]: > 100 µM

SMILES: O=C(NCCN1CCC(O)CC1)c1cc2c(o1)C(=O)c1ccccc1C2=O
- GI50 [1]: 0.666 µM
- TGI [1]: 1.84 µM
- GI50 [2]: 0.294 µM
- TGI [2]: 2.39 µM
- GI50 [3]: 1.52 µM
- TGI [3]: 5.24 µM
- GI50 [4]: 0.549 µM
- TGI [4]: 1.74 µM
- GI50 [5]: 0.179 µM
- TGI [5]: 0.325 µM
- GI50 [6]: 0.335 µM
- TGI [6]: 1.14 µM
- GI50 [7]: 0.214 µM
- TGI [7]: 0.492 µM
- GI50 [8]: 0.123 µM
- TGI [8]: 0.268 µM
- GI50 [9]: 0.149 µM
- TGI [9]: 0.288 µM
- GI50 [10]: 0.518 µM
- TGI [10]: 2.21 µM

SMILES: Cc1ccc(C(=O)/C(=C\c2ccc([N+](=O)[O-])cc2)S(=O)Cc2ccc(F)cc2)cc1 (stereo not given)
- GI50 [1]: 1.36 µM
- TGI [1]: 2.69 µM
- GI50 [2]: 1.52 µM
- TGI [2]: 3.09 µM
- GI50 [3]: 2.28 µM
- TGI [3]: 5.97 µM
- GI50 [4]: 1.82 µM
- TGI [4]: 3.59 µM
- GI50 [5]: 1.49 µM
- TGI [5]: 2.86 µM
- GI50 [6]: 1.66 µM
- TGI [6]: 3.22 µM
- GI50 [7]: 3.48 µM
- TGI [7]: 13.1 µM
- GI50 [8]: 1.44 µM
- TGI [8]: 2.89 µM
- GI50 [9]: 1.94 µM
- TGI [9]: 5.05 µM
- GI50 [10]: 2.1 µM
- TGI [10]: 5.2 µM

SMILES: Nc1nc2ccc3[nH]ncc3c2c2c1CCCC2
- GI50 [1]: 2.13 µM
- TGI [1]: 10.5 µM
- GI50 [2]: 2.33 µM
- TGI [2]: 10.1 µM
- GI50 [3]: 1.75 µM
- TGI [3]: 5.57 µM
- GI50 [4]: 1.62 µM
- TGI [4]: 4.33 µM
- GI50 [5]: 2.4 µM
- TGI [5]: 10.7 µM
- GI50 [6]: 2.7 µM
- TGI [6]: 13.4 µM
- GI50 [7]: 1.48 µM
- TGI [7]: 4.59 µM
- GI50 [8]: 1.53 µM
- TGI [8]: 3.23 µM
- GI50 [9]: 2.49 µM
- TGI [9]: 10.5 µM
- GI50 [10]: 2.12 µM
- TGI [10]: 5.35 µM

SMILES: O=CC(Br)C(Br)c1ccccc1 (stereo not given)
- GI50 [1]: 1.48 µM
- TGI [1]: 3.07 µM
- GI50 [2]: 2.39 µM
- TGI [2]: 6.75 µM
- GI50 [3]: 4.77 µM
- TGI [3]: 27.7 µM
- GI50 [4]: 2.31 µM
- TGI [4]: 6.35 µM
- GI50 [5]: 2.26 µM
- TGI [5]: 5.74 µM
- GI50 [6]: 7.4 µM
- TGI [6]: 20.4 µM
- GI50 [7]: 6.8 µM
- TGI [7]: 18.7 µM
- GI50 [8]: 2 µM
- TGI [8]: 4.88 µM
- GI50 [9]: 12.8 µM
- TGI [9]: 27.7 µM
- GI50 [10]: 2.85 µM
- TGI [10]: 9.11 µM

SMILES: c1cncc(-c2nc3ccccc3s2)c1
- GI50 [1]: 29.5 µM
- TGI [1]: > 100 µM
- GI50 [2]: > 100 µM
- TGI [2]: > 100 µM
- GI50 [3]: > 100 µM
- TGI [3]: > 100 µM
- GI50 [4]: > 100 µM
- TGI [4]: > 100 µM
- GI50 [5]: > 100 µM
- TGI [5]: > 100 µM
- GI50 [6]: 97 µM
- TGI [6]: > 100 µM
- GI50 [7]: > 100 µM
- TGI [7]: > 100 µM
- GI50 [8]: > 100 µM
- TGI [8]: > 100 µM
- GI50 [9]: > 100 µM
- TGI [9]: > 100 µM
- GI50 [10]: > 100 µM
- TGI [10]: > 100 µM

SMILES: O=C1NC(=O)C(c2ccc(Cl)cc2)=C1Nc1ccc(Cl)c(C(=O)O)c1
- GI50 [1]: > 25 µM
- TGI [1]: > 25 µM
- GI50 [2]: > 25 µM
- TGI [2]: > 25 µM
- GI50 [3]: > 25 µM
- TGI [3]: > 25 µM
- GI50 [4]: > 25 µM
- TGI [4]: > 25 µM
- GI50 [5]: > 25 µM
- TGI [5]: > 25 µM
- GI50 [6]: > 25 µM
- TGI [6]: > 25 µM
- GI50 [7]: > 25 µM
- TGI [7]: > 25 µM
- GI50 [8]: > 25 µM
- TGI [8]: > 25 µM
- GI50 [9]: > 25 µM
- TGI [9]: > 25 µM
- GI50 [10]: > 25 µM
- TGI [10]: > 25 µM
